US9067977B2, “Peptides derivatized with A-B-C-D- and their therapeutical use” (Novo Nordisk A/S, priority 2007, dated 2015)
Starred links: 1 amine or outer side, 2 acyl side, 3 side chain; linkers in the order of their positions; H or OH if unused. Non-standard residues stand in square brackets, D forms with d. Residues, ends and D or L forms follow the SMILES beside them. Groups on a side chain read outwards from the residue. *: point of attachment. X1 = O=C(CCCCCCCCCCCCCCCc1nnn[nH]1)NS(=O)(=O)CCCC(=O)*; PEG12 = NCCOCCOCCOCCOCCOCCOCCOCCOCCOCCOCCOCCOCCC(=O)O; X2 = O=C(O)CCCCCCCCCCCCCCCCCCC(=O)NCC1CCC(C(=O)*)CC1; C20 diacid = O=C(O)CCCCCCCCCCCCCCCCCCC(=O)*; γGlu = O=C(O)[C@H](CCC(=O)[*:2])N[*:1]; Desaminohistidyl = O=C(CCc1c[nH]cn1)*; βAsp = O=C(O)[C@H](CC(=O)[*:2])N[*:1]; AEEA = NCCOCCOCC(=O)O; Aib = CC(C)(N)C(=O)O; Inp = O=C(O)C1CCNCC1; GABA = NCCCC(=O)O

Molecular target: human serum albumin (HSA) (Homo sapiens, UniProt P02768)
Test: Albumin binding affinity, competition scintillation proximity assay
Conditions: for EC50 at 20 h: human, biotinylated human serum albumin on streptavidin-SPA beads, pH 7.4
Protocol: Streptavidin-SPA beads (GE Healthcare RPNQ0009) were incubated with biotinylated HSA for 5 hours. The beads were washed with buffer to remove unbound HSA. […] After 20 hours of gentle rocking at room temperature the plates were centrifuged and counted on a TopCounter.

Sequence of human serum albumin (HSA) (P02768 25-609): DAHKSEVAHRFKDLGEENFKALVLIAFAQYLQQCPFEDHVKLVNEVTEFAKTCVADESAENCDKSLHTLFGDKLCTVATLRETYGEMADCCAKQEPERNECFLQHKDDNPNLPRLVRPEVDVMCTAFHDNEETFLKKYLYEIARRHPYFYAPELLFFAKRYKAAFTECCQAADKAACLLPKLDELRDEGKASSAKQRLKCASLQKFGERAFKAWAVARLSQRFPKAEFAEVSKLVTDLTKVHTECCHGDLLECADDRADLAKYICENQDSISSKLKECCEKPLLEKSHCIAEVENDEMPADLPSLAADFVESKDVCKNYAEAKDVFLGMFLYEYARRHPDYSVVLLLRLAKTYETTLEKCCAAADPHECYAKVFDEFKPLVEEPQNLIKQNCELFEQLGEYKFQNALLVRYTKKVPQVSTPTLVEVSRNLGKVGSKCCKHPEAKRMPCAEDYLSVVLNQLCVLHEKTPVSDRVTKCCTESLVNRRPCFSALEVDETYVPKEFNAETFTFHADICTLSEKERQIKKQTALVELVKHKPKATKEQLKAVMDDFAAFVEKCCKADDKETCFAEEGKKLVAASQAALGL

Row | SMILES | EC50 at 20 h [µM] | EC50 [µM]
1 | CC[C@H](C)[C@H](NC(=O)[C@H](Cc1ccccc1)NC(=O)[C@H](CCC(=O)O)NC(=O)[C@H](CCCCNC(=O)COCCOCCNC(=O)CC[C@H](NC(=O)CC[C@H](NC(=O)CCCNC(=O)CCCS(=O)(=O)NC(=O)CCCCCCCCCCCCCCCc1nnn[nH]1)C(=O)O)C(=O)O)NC(=O)[C@H](C)NC(=O)[C@H](C)NC(=O)[C@H](CCC(N)=O)NC(=O)CNC(=O)[C@H](CCC(=O)O)NC(=O)[C@H](CC(C)C)NC(=O)[C@H](Cc1ccc(O)cc1)NC(=O)[C@H](CO)NC(=O)[C@H](CO)NC(=O)[C@@H](NC(=O)[C@H](CC(=O)O)NC(=O)[C@H](CO)NC(=O)[C@@H](NC(=O)[C@H](Cc1ccccc1)NC(=O)[C@@H](NC(=O)CNC(=O)[C@H](CCC(=O)O)NC(=O)C(C)(C)NC(=O)[C@@H](N)Cc1c[nH]cn1)[C@@H](C)O)[C@@H](C)O)C(C)C)C(=O)N[C@@H](C)C(=O)N[C@@H](Cc1c[nH]c2ccccc12)C(=O)N[C@@H](CC(C)C)C(=O)N[C@H](C(=O)N[C@@H](CCCNC(=N)N)C(=O)O)C(C)C [Example 36, N-epsilon26-[2-(2-{2-[(S)-4-Carboxy-4-((S)-4-carboxy-4-{4-[4-(16-(1H-tetrazol-5-yl)hexadecanoylsulfamoyl)butyrylamino]butyrylamino}butyrylamino)butyrylamino]ethoxy}ethoxy)acetyl][Aib8,Arg34]GLP-1-(7-34)] | 0.1 to 0.15 | –
2 | CC[C@H](C)[C@H](NC(=O)[C@H](Cc1ccccc1)NC(=O)[C@H](CCC(=O)O)NC(=O)[C@H](CCCNC(=N)N)NC(=O)[C@H](C)NC(=O)[C@H](C)NC(=O)[C@H](CCC(N)=O)NC(=O)CNC(=O)[C@H](CCC(=O)O)NC(=O)[C@H](CC(C)C)NC(=O)[C@H](Cc1ccc(O)cc1)NC(=O)[C@H](CO)NC(=O)[C@H](CO)NC(=O)[C@@H](NC(=O)[C@H](CC(=O)O)NC(=O)[C@H](CO)NC(=O)[C@@H](NC(=O)[C@H](Cc1ccccc1)NC(=O)[C@@H](NC(=O)CNC(=O)[C@H](CCC(=O)O)NC(=O)[C@H](C)NC(=O)CCc1c[nH]cn1)[C@@H](C)O)[C@@H](C)O)C(C)C)C(=O)N[C@@H](C)C(=O)N[C@@H](Cc1c[nH]c2ccccc12)C(=O)N[C@@H](CC(C)C)C(=O)N[C@H](C(=O)N[C@@H](CCCNC(=N)N)C(=O)NCC(=O)N[C@@H](CCCNC(=N)N)C(=O)N[C@@H](CCCCNC(=O)COCCOCCNC(=O)CC[C@H](NC(=O)CC[C@H](NC(=O)CCCCCCCCCCCNC(=O)CCCS(=O)(=O)NC(=O)CCCCCCCCCCCCCCCc1nnn[nH]1)C(=O)O)C(=O)O)C(N)=O)C(C)C [Example 50] | – | 0.001 to 0.1
3 | CC[C@H](C)[C@H](NC(=O)[C@H](Cc1ccccc1)NC(=O)[C@H](CCC(=O)O)NC(=O)[C@H](CCCNC(=N)N)NC(=O)[C@H](C)NC(=O)[C@H](C)NC(=O)[C@H](CCC(N)=O)NC(=O)[C@H](CCC(=O)O)NC(=O)[C@H](CCC(=O)O)NC(=O)[C@H](CC(C)C)NC(=O)[C@H](Cc1ccc(O)cc1)NC(=O)[C@H](CO)NC(=O)[C@H](CO)NC(=O)[C@@H](NC(=O)[C@H](CC(=O)O)NC(=O)[C@H](CO)NC(=O)[C@@H](NC(=O)[C@H](Cc1ccccc1)NC(=O)[C@@H](NC(=O)CNC(=O)[C@H](CCC(=O)O)NC(=O)C(C)(C)NC(=O)[C@@H](N)Cc1c[nH]cn1)[C@@H](C)O)[C@@H](C)O)C(C)C)C(=O)N[C@@H](C)C(=O)N[C@@H](Cc1c[nH]c2ccccc12)C(=O)N[C@@H](CC(C)C)C(=O)N[C@H](C(=O)N[C@@H](CCCNC(=N)N)C(=O)NCC(=O)N[C@@H](CCCNC(=N)N)C(=O)NCC(=O)N[C@@H](CCCCNC(=O)COCCOCCNC(=O)COCCOCCNC(=O)C[C@H](NC(=O)C1CCC(CNC(=O)CCCCCCCCCCCCCCCCCCC(=O)O)CC1)C(=O)O)C(N)=O)C(C)C (stereo partly drawn) [Example 22, [Aib8,Glu22,Arg26,Arg34]GLP-1-(7-37)Lys[2-(2-[2-(2-[2-(2-((S)-3-[4-([19-Carboxynonadecanoylamino]methyl)cyclohexylcarbonylamino]-3-carboxypropionylamino)ethoxy)ethoxy]acetylamino)ethoxy]ethoxy)acetyl]amide] (H-H[Aib]EGTFTSDVSSYLEEQAAREFIAWLVRGRGK([AEEA-AEEA-βAsp-X2])-NH2; N-terminus assumed) | – | 0.15 to 0.3
4 | CC[C@H](C)[C@H](NC(=O)[C@H](Cc1ccccc1)NC(=O)[C@H](CCC(=O)O)NC(=O)[C@H](CCCNC(=N)N)NC(=O)[C@H](C)NC(=O)[C@H](C)NC(=O)[C@H](CCC(N)=O)NC(=O)[C@H](CCC(=O)O)NC(=O)[C@H](CCC(=O)O)NC(=O)[C@H](CC(C)C)NC(=O)[C@H](Cc1ccc(O)cc1)NC(=O)[C@H](CO)NC(=O)[C@H](CO)NC(=O)[C@@H](NC(=O)[C@H](CC(=O)O)NC(=O)[C@H](CO)NC(=O)[C@@H](NC(=O)[C@H](Cc1ccccc1)NC(=O)[C@@H](NC(=O)CNC(=O)[C@H](CCC(=O)O)NC(=O)[C@H](C)NC(=O)CCc1c[nH]cn1)[C@@H](C)O)[C@@H](C)O)C(C)C)C(=O)N[C@@H](C)C(=O)N[C@@H](Cc1c[nH]c2ccccc12)C(=O)N[C@@H](CC(C)C)C(=O)N[C@H](C(=O)N[C@@H](CCCNC(=N)N)C(=O)NCC(=O)N[C@@H](CCCNC(=N)N)C(=O)N[C@@H](CCCCNC(=O)COCCOCCNC(=O)COCCOCCNC(=O)C[C@@H](NC(=O)C1CCN(C(=O)CCCCCCCCCCCCCCCCCCC(=O)O)CC1)C(=O)O)C(N)=O)C(C)C [Example 1, N-ε^37{2-[2-(2-{2-[2-((R)-3-carboxy-3-{[1-(19-carboxynonadecanoyl)piperidine-4-carbonyl]amino}propionylamino)ethoxy]ethoxy}acetylamino)ethoxy]ethoxy}acetyl [desaminoHis^7,Glu^22,Arg^26,Arg^34,Lys^37]GLP-1(7-37)amide] | – | 0.3 to 0.8

Other lines, results leading:

Row | EC50 at 20 h [µM] | EC50 [µM] | SMILES
5 | – | 0.8 to 2 | CC[C@H](C)[C@H](NC(=O)[C@H](Cc1ccccc1)NC(=O)[C@H](CCC(=O)O)NC(=O)[C@H](CCCNC(=N)N)NC(=O)[C@H](C)NC(=O)[C@H](C)NC(=O)[C@H](CCC(N)=O)NC(=O)[C@H](CCC(=O)O)NC(=O)[C@H](CCC(=O)O)NC(=O)[C@H](CC(C)C)NC(=O)[C@H](Cc1ccc(O)cc1)NC(=O)[C@H](CO)NC(=O)[C@H](CO)NC(=O)[C@@H](NC(=O)[C@H](CC(=O)O)NC(=O)[C@H](CO)NC(=O)[C@@H](NC(=O)[C@H](Cc1ccccc1)NC(=O)[C@@H](NC(=O)CNC(=O)[C@H](CCC(=O)O)NC(=O)C(C)(C)NC(=O)[C@@H](N)Cc1c[nH]cn1)[C@@H](C)O)[C@@H](C)O)C(C)C)C(=O)N[C@@H](C)C(=O)N[C@@H](Cc1c[nH]c2ccccc12)C(=O)N[C@@H](CC(C)C)C(=O)N[C@H](C(=O)N[C@@H](CCCNC(=N)N)C(=O)NCC(=O)N[C@@H](CCCNC(=N)N)C(=O)N[C@@H](CCCCNC(=O)COCCOCCNC(=O)COCCOCCNC(=O)CC[C@H](NC(=O)[C@H]1CC[C@H](CNC(=O)CCCCCCCCCCCCCCCCCCC(=O)O)CC1)C(=O)O)C(N)=O)C(C)C [Example 23, N-epsilon37-[2-(2-{2-[2-(2-{2-[(S)-4-Carboxy-4-({trans-4-[(19-carboxy-nonadecanoylamino)methyl]cyclohexanecarbonyl}amino)butyrylamino]ethoxy}ethoxy)acetylamino]ethoxy}ethoxy)acetyl][Aib8,Glu22,Arg26,Arg34,Lys37]GLP-1-(7-37)amide]
6 | – | 0.3 to 0.8 | CC[C@H](C)[C@H](NC(=O)[C@H](Cc1ccccc1)NC(=O)[C@H](CCC(=O)O)NC(=O)[C@H](CCCNC(=N)N)NC(=O)[C@H](C)NC(=O)[C@H](C)NC(=O)[C@H](CCC(N)=O)NC(=O)[C@H](CCC(=O)O)NC(=O)[C@H](CCC(=O)O)NC(=O)[C@H](CC(C)C)NC(=O)[C@H](Cc1ccc(O)cc1)NC(=O)[C@H](CO)NC(=O)[C@H](CO)NC(=O)[C@@H](NC(=O)[C@H](CC(=O)O)NC(=O)[C@H](CO)NC(=O)[C@@H](NC(=O)[C@H](Cc1ccccc1)NC(=O)[C@@H](NC(=O)CNC(=O)[C@H](CCC(=O)O)NC(=O)C(C)(C)NC(=O)[C@@H](N)Cc1c[nH]cn1)[C@@H](C)O)[C@@H](C)O)C(C)C)C(=O)N[C@@H](CCC(=O)O)C(=O)N[C@@H](Cc1c[nH]c2ccccc12)C(=O)N[C@@H](CC(C)C)C(=O)N[C@H](C(=O)N[C@@H](CCCCN)C(=O)NCC(=O)N[C@@H](CCCNC(=N)N)C(=O)N1CCC[C@H]1C(=O)N[C@@H](CCCCNC(=O)CCOCCOCCOCCOCCOCCOCCOCCOCCOCCOCCOCCOCCNC(=O)CC[C@H](NC(=O)CC[C@H](NC(=O)CCCNC(=O)CCCS(=O)(=O)NC(=O)CCCCCCCCCCCCCCCc1nnn[nH]1)C(=O)O)C(=O)O)C(=O)O)C(C)C [Example 52] (H-H[Aib]EGTFTSDVSSYLEEQAAREFIEWLVKGRPK([PEG12-γGlu-γGlu-GABA-X1])-OH)
7 | 0.1 to 0.15 | – | CC[C@H](C)[C@H](NC(=O)[C@H](Cc1ccccc1)NC(=O)[C@H](CCC(=O)O)NC(=O)[C@H](CCCNC(=N)N)NC(=O)[C@H](C)NC(=O)[C@H](C)NC(=O)[C@H](CCC(N)=O)NC(=O)[C@H](CCC(=O)O)NC(=O)[C@H](CCC(=O)O)NC(=O)[C@H](CC(C)C)NC(=O)[C@H](Cc1ccc(O)cc1)NC(=O)[C@H](CO)NC(=O)[C@H](CO)NC(=O)[C@@H](NC(=O)[C@H](CC(=O)O)NC(=O)[C@H](CO)NC(=O)[C@@H](NC(=O)[C@H](Cc1ccccc1)NC(=O)[C@@H](NC(=O)CNC(=O)[C@H](CCC(=O)O)NC(=O)[C@H](C)NC(=O)CCc1c[nH]cn1)[C@@H](C)O)[C@@H](C)O)C(C)C)C(=O)N[C@@H](C)C(=O)N[C@@H](Cc1c[nH]c2ccccc12)C(=O)N[C@@H](CC(C)C)C(=O)N[C@H](C(=O)N[C@@H](CCCNC(=N)N)C(=O)NCC(=O)N[C@@H](CCCNC(=N)N)C(=O)NCC(=O)N[C@@H](CCCCNC(=O)COCCOCCNC(=O)CC[C@H](NC(=O)COCCOCCNC(=O)CC[C@H](NC(=O)C1CCN(C(=O)CCCCCCCCCCCCCCCCCCC(=O)O)CC1)C(=O)O)C(=O)O)C(=O)O)C(C)C [Example 58, [DesaminoHis7,Glu22,Arg26,34]-GLP-1 (7-37)-Lys-(2-(2-{2-[(S)-4-carboxy-4-(2-{2-[2-((S)-4-carboxy-4-{[1-(19-carboxynonadecanoyl)piperidine-4-carbonyl]amino}butyrylamino)ethoxy]ethoxy}acetylamino)butyrylamino]ethoxy}ethoxy)acetyl) peptide] (Desaminohistidyl-AEGTFTSDVSSYLEEQAAREFIAWLVRGRGK([AEEA-γGlu-AEEA-γGlu-Inp-C20 diacid])-OH)
